According to patent US8889708B2 (Boehringer Ingelheim International GmbH, priority 2013, dated 2014):

Columns and labels:
[1] = test system: Neutrophil elastase activity in U937 cells; assay: Neutrophil elastase activity in U937 cytosolic lysate after incubation with test compound; type: cell-based; conditions: Homo sapiens, U-937, U937 cells incubated 48 hours with compound, read-out: Reduction of NE-activity in U937 cells IC50
Description: Determination of Neutrophil Elastase Activity in U937 Cytosolic Lysate Preparation after Incubation with Test Compound
Optiplate 384F were purchased from PerkinElmer (Prod. No. #6007270). 24well Nunclon cell culture plates (No. 142475) and 96well plates (No. 267245) were from Nunc. Dimethylsulfoxid (DMSO) was from Sigma (Prod. No. D8418). Nonidet-P40 (NP40) was from USBiological (Prod. No. N3500)
Substrate, specific for Neutrophil elastase, was from Bachem (MeOSuc-Ala-Ala-Pro-Val-AMC; Prod. No. I-1270).
Human neutrophil elastase was from Calbiochem (Prod. No. 324681)
Tris-buffer (100 mM Tris; 1M NaCL; pH 7.5)
Tris-buffer+HSA 0.1%; Human Serum Albumin from Calbiochem (Cat#. 126658)
Serine-protease buffer (20 mM Tris; 100 mM NaCL; pH 7.5)+0.1% HSA
Serine protease lysis buffer: 20 mM Tris-HCL; 100 mM NaCl pH 7.5; +0.2% Nonidet-P40;
PBS: phosphate buffered saline, without Ca and Mg, from Gibco
U937 from ECACC (Cat. No. 85011440) cultured in suspension at 37° C. and 5% CO2.
Cell density: 0.2-1 Mio. Cells/ml.
Medium: RPMI1640 GlutaMAX (No. 61870) with 10% FCS from Gibco
Cell Seeding and Treatment:
Compounds in 100% DMSO were diluted in Medium (—FCS) with 10% DMSO and further diluted according to the experiment planned.
20 μl of the compound solution was transferred in the respective wells of the 24 well plate and diluted with 2 ml cell suspension/well containing […] (final concentration of DMSO=0.1%). Compound dilution factor=100
Compounds (up to 7 concentrations) were tested in triplicates with 3 wells for the DMSO 0.1% control, incubatet for 48 hours without medium change at 37° C., 5% CO2 and 95% relative humidity.
Cell Harvesting and Cell Lysate:
Transfer the cell suspension in 2.2 ml Eppendorf cups. Separate cells from medium by centrifugation (400×g; 5 min; RT); discard the supernatant. Resuspend in 1 ml PBS; centrifugation (400×g; 5 min; RT); wash cells twice with PBS. Add 100 μl Serin lysis buffer (ice cold) to the cell pellet; resuspend the pellet and store on ice for 15 minutes. Remove debris by centrifugation at 15000×g for 10 min at 4° C. Transfer 80-100 μl lysate supernatant in 96well plate and store immediately at −80° C.
Neutrophil Elastase Activity Assay:
Frozen lysates were thawn at 37° C. for 10 minutes and stored on ice. Protein content was determined with Bradford protein assay. Lysates were diluted to 0.2-0.5 mg/ml protein in serine protease buffer+HSA.
Standard: NE ([…] stocksolution in Tris-buffer; stored at −80° C.) was diluted in Tris-buffer+HSA to 750 ng/ml, and further serially diluted 1:2 for the standard curve.
Buffer, blank, standard and lysate samples were transferred into 384 well plate
Blank: 5 μl Tris-buffer+10 μl Tris-buffer+HSA+5 μl Substrate
Standard: 5 μl Tris-buffer+10 μl NE (diff.conc.)+5 μl Substrate
Lysate: 5 μl Tris-buffer+10 μl Lysat+5 μl Substrate
The increase in fluorescence (Ex360 nm/Em 460 nm) is determined over 30 minutes with a Molecular Device Spectramax M5 Fluorescence Reader. Kinetic Reduction (Vmax units/sec); 4 vmax points. The amount of neutrophil elastase (ng/ml) is calculated using the standard curve and the Spectramax software. The result is interpolated to ng/mg lysate protein using excel formula functions. Percent inhibition in the compound-treated lysate samples is calculated relative to the DMSO-treated control-sample (100−(compound-sample*100)/control-sample)
IC50 is calculated using Graphpad Prism; nonlinear fitting (log(inhibitor) vs. response—Variable slope).

[2] = Metabolic stability with human liver microsomes; type: in vitro ADME; conditions: pH 7.6; pooled human liver microsomes, 37° C., 1 μM test compound, 1 mg/ml protein, NADPH; read-out: In vitro stability in human liver microsome incubations t½
Description: Determination of Metabolic Stability with Human Liver Microsomes
The metabolic degradation of the test compound is assayed at 37° C. with pooled human liver microsomes. The final incubation volume of 100 μl per time point contains TRIS buffer pH 7.6 (0.1 M), magnesium chloride (5 mM), microsomal protein (1 mg/ml) and the test compound at a final concentration of 1 μM. Following a short preincubation period at 37° C., the reactions are initiated by addition of beta-nicotinamide adenine dinucleotide phosphate, reduced form (NADPH, 1 mM) and terminated by transferring an aliquot into acetonitrile after different time points. Additionally, the NADPH-independent degradation is monitored in incubations without NADPH, terminated at the last time point. The [%] remaining test compound after NADPH independent incubation is reflected by the parameter c(control) (metabolic stability). The quenched incubations are pelleted by centrifugation (10,000 g, 5 min). An aliquot of the supernatant is assayed by LC-MS/MS for the amount of parent compound.
The half-life (t½ INVITRO) is determined by the slope of the semilogarithmic plot of the concentration-time profile. The intrinsic clearance (CL_[…]) is calculated by considering the amount of protein in the incubation: CL_[…][μl/min/mg protein]=(ln 2/(half-life[min]*protein content[mg/ml]))*1,000.

recombinant human DPPI = recombinant human DPPI (Homo sapiens (Human), UniProt P53634); assay: Inhibition of Human DPPI (Cathepsin C); type: biochemical; conditions: substrate Gly-Arg-AMC, 30 min room temperature
From the text: Inhibition of Human DPPI (Cathepsin C)
Materials: Microtiterplates (Optiplate-384 F) were purchased from PerkinElmer (Prod. No. 6007270). The substrate Gly-Arg-AMC was from Biotrend (Prod.-No. 808756 Custom peptide). Bovine serum albumin (BSA; Prod. No. A3059) and Dithiothreitol (DTT; Prod. No D0632) were from Sigma. TagZyme buffer was from Riedel-de-Haen (Prod.-No. 04269), NaCl was from Merck (Prod.-No. 1.06404.1000) and morpholinoethane sulfonic acid (MES), was from Serva (Prod.-No. 29834). The DPP1 inhibitor Gly-Phe-DMK was purchased from MP Biomedicals (Prod.-No. 03DK00625). The recombinant human DPPI was purchased from Prozymex. All other materials were of highest grade commercially available.
The following buffers were used: MES buffer: 25 mM MES, 50 mM NaCl, 5 mM DTT, adjusted to pH 6.0, containing 0.1% BSA; TAGZyme Buffer: 20 mM NaH2PO4, 150 mM NaCl adjusted to pH 6.0 with HCl
The recombinant human DPPI was diluted in TAGZyme buffer to 1 U/ml (38.1 μg/ml, respectively), and then activated by mixing in a 1:2 ratio with a Cysteamine aqueous solution (2 mM) and incubating for 5 min at room temperature.
Five uL test compound (final concentration 0.1 nM to 100 μM) in aqua bidest (containing 4% DMSO, final DMSO concentration 1%) were mixed with 10 μL of DPPI in MES buffer (final concentration 0.0125 ng/μL) and incubated for 10 min. Then, 5 μL of substrate in MES buffer (final concentration 50 μM) were added. The microtiter plates were then incubated at room temperature for 30 min. Then, the reaction was stopped by adding 10 μL of Gly-Phe-DMK in MES-buffer (final concentration 1 μM). The fluorescence in the wells was determined using a Molecular Devices SpectraMax M5 Fluorescence Reader (Ex 360 nm, Em 460 nm) or an Envision Fluorescence Reader (Ex 355 nm, Em 460 nm).
Each assay microtiter plate contained wells with vehicle controls (1% DMSO in bidest+0.075% BSA) as reference for non-inhibited enzyme activity (100% Ctl; high values) and wells with inhibitor (Gly-Phe-DMK, in bidest+1% DMSO+0.075% BSA, final concentration 1 μM) as controls for background fluorescence (0% Ctl; low values).
The analysis of the data was performed by calculating the percentage of fluorescence in the presence of test compound in comparison to the fluorescence of the vehicle control after subtracting the background fluorescence using the following formula: (RFU(sample)−RFU(background))*100/(RFU(control)−RFU(background))
Data from these calculations were used to generate IC50 values for inhibition of DPPI, respectively.

[3] = target: recombinant human Cathepsin K (Homo sapiens (Human), UniProt P43235); assay: Inhibition of Human Cathepsin K; type: biochemical; conditions: substrate Z-Gly-Pro-Arg-AMC, 60 min room temperature
From the text: Inhibition of Human Cathepsin K Materials: Microtiterplates (Optiplate-384 F were purchased from PerkinElmer (Prod. No. 6007270). The substrate Z-Gly-Pro-Arg-AMC was from Biomol (Prod.-No. P-142). L-Cysteine (Prod. No. 168149) was from Sigma. Sodium actetate was from Merck (Prod.-No. 6268.0250), EDTA was from Fluka (Prod.-No. 03680). The inhibitor E-64 was purchased from Sigma (Prod.-No. E3132). The recombinant human Cathepsin K proenzyme was purchased from Biomol (Prod. No. SE-367). All other materials were of highest grade commercially available.
The following buffers were used: Activation buffer: 32.5 mM sodium acetate, adjusted to pH 3.5 with HCl; Assay buffer: 150 mM sodium acetate, 4 mM EDTA, 20 mM L-Cysteine, adjusted to pH 5.5 with HCl,
To activate the proenzyme, 5 μl procathepsin K were mixed with 1 ul activation buffer, and incubated at room temperature for 30 min.
5 μL test compound (final concentration 0.1 nM to 100 μM) in aqua bidest (containing 4% DMSO, final DMSO concentration 1%) were mixed with 10 uL of Cathepsin K in assay buffer (final concentration 2 ng/μL) and incubated for 10 min. Then 5 μL of substrate in assay buffer (final concentration 12.5 μM) were added. The plates were then incubated at room temperature for 60 min. Then, the reaction was stopped by adding 10 μL of E64 in assay buffer (final concentration 1 μM). The fluorescence in the wells was determined using a Molecular Devices SpectraMax M5 Fluorescence Reader (Ex 360 nm, Em 460 nm).
Each assay microtiter plate contains wells with vehicle controls (1% DMSO in bidest) as reference for non-inhibited enzyme activity (100% Ctl; high values) and wells with inhibitor (E64 in bidest+1% DMSO, final concentration 1 μM) as controls for background fluorescence (0% Ctl; low values). The analysis of the data was performed by calculating the percentage of fluorescence in the presence of test compound in comparison to the fluorescence of the vehicle control after subtracting the background fluorescence: (RFU(sample)−RFU(background))*100/(RFU(control)−RFU(background))
Data from these calculations were used to generate IC50 values for inhibition of Cathepsin K, respectively.

Sequence of recombinant human DPPI (P53634 231-394): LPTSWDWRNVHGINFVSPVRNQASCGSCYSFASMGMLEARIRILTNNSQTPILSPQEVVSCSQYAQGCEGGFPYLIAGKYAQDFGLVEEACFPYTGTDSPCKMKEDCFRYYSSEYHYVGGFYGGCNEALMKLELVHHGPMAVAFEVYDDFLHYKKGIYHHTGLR
Sequence of recombinant human DPPI (P53634 395-463): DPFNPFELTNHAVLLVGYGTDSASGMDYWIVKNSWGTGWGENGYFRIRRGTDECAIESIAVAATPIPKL
Sequence of recombinant human DPPI (P53634 25-134): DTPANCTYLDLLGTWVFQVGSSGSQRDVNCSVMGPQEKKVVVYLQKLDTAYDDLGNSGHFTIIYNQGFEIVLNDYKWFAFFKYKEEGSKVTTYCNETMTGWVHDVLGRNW
Sequence of recombinant human Cathepsin K (P43235 115-329): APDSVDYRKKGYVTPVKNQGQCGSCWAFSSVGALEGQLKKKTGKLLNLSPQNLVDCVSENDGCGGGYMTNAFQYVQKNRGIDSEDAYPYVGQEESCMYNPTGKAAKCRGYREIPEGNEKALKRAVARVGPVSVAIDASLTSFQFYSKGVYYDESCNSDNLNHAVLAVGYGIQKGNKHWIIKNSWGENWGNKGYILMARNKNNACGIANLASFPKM

## CS(=O)(=O)c1cc(-c2ccc(C[C@@H](C#N)NC(=O)C34CCC(CC3)CN4)c(F)c2)ccc1C#N [Example 1]
[1]
  IC50: 64 nM
[2]
  half-life at 1 μM: > 2.17 h

## CN1C(=O)Cc2ccc(-c3ccc(C[C@@H](C#N)NC(=O)[C@@]45CCO[C@@H](CN4)C5)cc3)cc21 [Example 5]
Recombinant human DPPI
  IC50: 50.3 nM
[3]
  IC50: > 30000 nM

## CS(=O)(=O)c1cc(-c2ccc(C[C@@H](C#N)NC(=O)[C@@]34CCO[C@@H](CN3)C4)cc2)ccc1C#N [Example 6]
Recombinant human DPPI
  IC50: 202 nM

## CN1C(=O)Cc2ccc(-c3ccc(C[C@@H](C#N)NC(=O)[C@]45CC[C@@H](CN4)C5)cc3)cc21 [Example 7]
Recombinant human DPPI
  IC50: 204 nM

## CN1C(=O)Cc2ccc(-c3ccc(C[C@@H](C#N)NC(=O)[C@@]45CC[C@H](CN4)C5)cc3)cc21 [Example 8]
Recombinant human DPPI
  IC50: 221 nM

## CN1C(=O)Cc2ccc(-c3ccc(C[C@@H](C#N)NC(=O)C45CCOC(CCN4)C5)cc3)cc21 (stereo partly drawn) [Example 9]
Recombinant human DPPI
  IC50: 228 nM

## CS(=O)(=O)c1cc(-c2ccc(C[C@@H](C#N)NC(=O)[C@@]34CC[C@H](CN3)C4)cc2)ccc1C#N [Example 10]
Recombinant human DPPI
  IC50: 283 nM

## N#Cc1ccc(-c2ccc(C[C@@H](C#N)NC(=O)C34CCC(CC3)N4)cc2)cc1F [Example 11]
Recombinant human DPPI
  IC50: 284 nM
[2]
  half-life at 1 μM: > 2.17 h

## CN1C(=O)Cc2ccc(-c3ccc(C[C@@H](C#N)NC(=O)[C@]45CCC[C@@H](CN4)C5)cc3)cc21 [Example 12]
Recombinant human DPPI
  IC50: 428 nM

## CS(=O)(=O)c1cc(-c2ccc(C[C@@H](C#N)NC(=O)[C@]34CC[C@@H](CN3)C4)cc2)ccc1C#N [Example 14]
Recombinant human DPPI
  IC50: 650 nM

## CS(=O)(=O)c1cc(-c2ccc(C[C@@H](C#N)NC(=O)[C@]34CCC[C@@H](CN3)C4)cc2)ccc1C#N [Example 16]
Recombinant human DPPI
  IC50: 1220 nM

## CS(=O)(=O)c1ccc(-c2ccc(C[C@@H](C#N)NC(=O)C34CCC(CC3)CN4)c(F)c2)cc1C#N [Example 18]
Recombinant human DPPI
  IC50: 15 nM
[1]
  IC50: 74 nM
[2]
  half-life at 1 μM: > 2.17 h

## CN1Cc2ccc(-c3ccc(C[C@@H](C#N)NC(=O)C45CCC(CC4)CN5)c(F)c3)cc2C1 [Example 19]
Recombinant human DPPI
  IC50: 38.1 nM

## N#C[C@H](Cc1ccc(-c2cccc(C(N)=O)c2)cc1F)NC(=O)C12CCC(CC1)CN2 [Example 24]
Recombinant human DPPI
  IC50: 11.2 nM
[1]
  IC50: 114 nM
[2]
  half-life at 1 μM: > 2.17 h

## CN1C(=O)C(C)(C)c2ccc(-c3ccc(C[C@@H](C#N)NC(=O)C45CCC(CC4)CN5)c(F)c3)cc21 [Example 25]
Recombinant human DPPI
  IC50: 40.7 nM

## N#C[C@H](Cc1ccc(-c2cnn(CC3CCOCC3)c2)cc1F)NC(=O)C12CCC(CC1)CN2 [Example 29]
Recombinant human DPPI
  IC50: 20.2 nM
[1]
  IC50: 58 nM
[2]
  half-life at 1 μM: > 2.17 h

## CN(C)S(=O)(=O)c1cccc(-c2ccc(C[C@@H](C#N)NC(=O)C34CCC(CC3)CN4)c(F)c2)c1 [Example 30]
Recombinant human DPPI
  IC50: 6.7 nM
[2]
  half-life at 1 μM: 0.417 h
